Test results published in article PMC8745178, “Methyl 2-Halo-4-Substituted-5-Sulfamoyl-Benzoates as High Affinity and Selective Inhibitors of Carbonic Anhydrase IX” (International Journal of Molecular Sciences, 2021).

Columns and labels:
CAXIV = CAXIV (Homo sapiens, UniProt Q9ULX7); assay: fluorescent thermal shift assay (FTSA), CAXIV; format: binding; conditions: 37 °C; for ΔGintr CAXIV: converted from Kd_intr, independent of pH; for ΔGobs CAXIV: converted from Kd_obs, pH 7.0, FTSA
CAXII = CAXII (Homo sapiens, UniProt O43570); assay: fluorescent thermal shift assay (FTSA), CAXII; format: binding; conditions: 37 °C; for ΔGintr CAXII: converted from Kd_intr, independent of pH; for ΔGobs CAXII: converted from Kd_obs, pH 7.0, FTSA
Sequence of CAXII (O43570 25-354): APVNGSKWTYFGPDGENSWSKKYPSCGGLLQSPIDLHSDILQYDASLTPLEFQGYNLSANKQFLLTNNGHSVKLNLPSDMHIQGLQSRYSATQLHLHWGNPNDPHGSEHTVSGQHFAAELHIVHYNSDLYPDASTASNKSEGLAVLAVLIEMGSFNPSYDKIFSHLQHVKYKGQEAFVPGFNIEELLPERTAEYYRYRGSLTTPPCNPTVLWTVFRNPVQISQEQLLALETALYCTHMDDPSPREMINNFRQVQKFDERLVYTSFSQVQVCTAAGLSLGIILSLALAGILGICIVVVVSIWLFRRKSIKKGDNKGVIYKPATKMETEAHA

[1] = solubility observed visually and in absorption spectra; format: physicochemical; design: key: low solubility, LS
CAIV = CAIV (Homo sapiens, UniProt P22748); assay: fluorescent thermal shift assay (FTSA), CAIV; format: binding; conditions: 37 °C; for ΔGintr CAIV: converted from Kd_intr, independent of pH; for ΔGobs CAIV: converted from Kd_obs, pH 7.0, FTSA
Sequence of CAIV (P22748 19-312): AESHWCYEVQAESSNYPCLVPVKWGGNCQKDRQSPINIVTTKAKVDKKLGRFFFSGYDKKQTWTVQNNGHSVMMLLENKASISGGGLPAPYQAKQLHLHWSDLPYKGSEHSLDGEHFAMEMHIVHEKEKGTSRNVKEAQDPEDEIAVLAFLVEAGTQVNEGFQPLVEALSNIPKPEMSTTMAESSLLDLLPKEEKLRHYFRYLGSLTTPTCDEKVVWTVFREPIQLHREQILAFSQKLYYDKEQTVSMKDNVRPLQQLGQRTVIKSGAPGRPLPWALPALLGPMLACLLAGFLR

CAVA = CAVA (Homo sapiens, UniProt P35218); assay: fluorescent thermal shift assay (FTSA), CAVA; format: binding; conditions: 37 °C; for ΔGintr CAVA: converted from Kd_intr, independent of pH; for ΔGobs CAVA: converted from Kd_obs, pH 7.0, FTSA
Sequence of CAVA (P35218 39-305): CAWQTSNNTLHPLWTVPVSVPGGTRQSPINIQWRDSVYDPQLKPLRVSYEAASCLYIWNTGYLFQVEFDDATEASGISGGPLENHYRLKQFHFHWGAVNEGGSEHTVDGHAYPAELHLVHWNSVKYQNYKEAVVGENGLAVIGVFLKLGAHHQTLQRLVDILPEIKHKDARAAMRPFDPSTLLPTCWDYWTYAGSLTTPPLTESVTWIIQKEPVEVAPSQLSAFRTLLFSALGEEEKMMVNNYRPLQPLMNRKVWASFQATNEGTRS

CAVB = CAVB (Homo sapiens, UniProt Q9Y2D0); assay: fluorescent thermal shift assay (FTSA), CAVB; format: binding; conditions: 37 °C; for ΔGintr CAVB: converted from Kd_intr, independent of pH; for ΔGobs CAVB: converted from Kd_obs, pH 7.0, FTSA
Sequence of CAVB (Q9Y2D0 34-317): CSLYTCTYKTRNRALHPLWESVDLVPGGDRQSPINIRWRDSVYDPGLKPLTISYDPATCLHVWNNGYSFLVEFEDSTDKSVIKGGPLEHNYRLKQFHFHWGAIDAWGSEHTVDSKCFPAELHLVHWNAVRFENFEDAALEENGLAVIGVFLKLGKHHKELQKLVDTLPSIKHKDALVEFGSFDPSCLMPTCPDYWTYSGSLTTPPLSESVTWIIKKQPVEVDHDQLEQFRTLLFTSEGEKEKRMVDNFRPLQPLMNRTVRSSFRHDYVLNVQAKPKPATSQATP

[2] = determination of pKa of the sulfonamide group by UV-VIS spectra at various pH; format: physicochemical; conditions: for f RSO2NH-, fraction of deprotonated sulfonamide: at pH 7.0, calculated from pKa; for pKa: calculated from spectra at various pH, 37 °C
CAVII = CAVII (Homo sapiens, UniProt P43166); assay: fluorescent thermal shift assay (FTSA), CAVII; format: binding; conditions: 37 °C; for ΔGintr CAVII: converted from Kd_intr, independent of pH; for ΔGobs CAVII: converted from Kd_obs, pH 7.0, FTSA
Sequence of CAVII (P43166 whole entry): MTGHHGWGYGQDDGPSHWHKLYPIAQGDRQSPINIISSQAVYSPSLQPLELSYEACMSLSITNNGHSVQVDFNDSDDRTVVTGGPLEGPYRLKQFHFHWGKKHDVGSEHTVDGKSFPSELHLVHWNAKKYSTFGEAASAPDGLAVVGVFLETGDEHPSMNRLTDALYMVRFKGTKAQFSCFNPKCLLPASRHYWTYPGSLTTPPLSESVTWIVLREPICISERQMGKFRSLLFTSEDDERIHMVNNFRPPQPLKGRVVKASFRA

CAII = CAII (Homo sapiens, UniProt P00918); assay: fluorescent thermal shift assay (FTSA), CAII; format: binding; conditions: 37 °C; for ΔGintr CAII: converted from Kd_intr, independent of pH; for ΔGobs CAII: converted from Kd_obs, pH 7.0, FTSA
CAVI = CAVI (Homo sapiens, UniProt P23280); assay: fluorescent thermal shift assay (FTSA), CAVI; format: binding; conditions: 37 °C; for ΔGintr CAVI: converted from Kd_intr, independent of pH; for ΔGobs CAVI: converted from Kd_obs, pH 7.0, FTSA
Sequence of CAVI (P23280 18-308): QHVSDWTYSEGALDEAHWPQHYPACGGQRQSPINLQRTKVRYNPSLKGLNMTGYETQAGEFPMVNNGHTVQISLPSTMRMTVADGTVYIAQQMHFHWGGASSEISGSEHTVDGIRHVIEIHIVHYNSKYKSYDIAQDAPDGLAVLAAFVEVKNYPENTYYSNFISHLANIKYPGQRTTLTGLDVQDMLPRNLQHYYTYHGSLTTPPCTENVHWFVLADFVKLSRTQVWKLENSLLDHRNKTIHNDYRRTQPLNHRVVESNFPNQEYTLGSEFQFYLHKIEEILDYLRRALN

CAI = CAI (Homo sapiens, UniProt P00915); assay: fluorescent thermal shift assay (FTSA), CAI; format: binding; conditions: 37 °C; for ΔGintr CAI: converted from Kd_intr, independent of pH; for ΔGobs CAI: converted from Kd_obs, pH 7.0, FTSA
Sequence of CAI (P00915 whole entry): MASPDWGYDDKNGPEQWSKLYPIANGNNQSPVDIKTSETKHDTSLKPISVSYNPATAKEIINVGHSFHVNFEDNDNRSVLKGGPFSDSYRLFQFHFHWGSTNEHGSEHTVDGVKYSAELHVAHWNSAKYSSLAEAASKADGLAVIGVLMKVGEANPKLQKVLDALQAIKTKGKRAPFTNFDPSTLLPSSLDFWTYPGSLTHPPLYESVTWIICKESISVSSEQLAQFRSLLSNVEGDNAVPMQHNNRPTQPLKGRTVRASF

CAXIII = CAXIII (Homo sapiens, UniProt Q8N1Q1); assay: fluorescent thermal shift assay (FTSA), CAXIII; format: binding; conditions: 37 °C; for ΔGobs CAXIII: converted from Kd_obs, pH 7.0, FTSA; for ΔGintr CAXIII: converted from Kd_intr, independent of pH
Sequence of CAXIII (Q8N1Q1 whole entry): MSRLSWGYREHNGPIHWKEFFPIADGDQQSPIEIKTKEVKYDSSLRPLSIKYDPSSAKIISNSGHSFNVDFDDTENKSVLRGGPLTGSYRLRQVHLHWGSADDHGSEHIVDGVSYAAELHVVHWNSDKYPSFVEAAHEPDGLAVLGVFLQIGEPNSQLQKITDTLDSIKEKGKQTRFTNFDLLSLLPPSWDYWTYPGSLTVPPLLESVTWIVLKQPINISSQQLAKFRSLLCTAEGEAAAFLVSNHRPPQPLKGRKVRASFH

CAIX = CAIX (Homo sapiens, UniProt Q16790); assay: fluorescent thermal shift assay (FTSA), CAIX; format: binding; conditions: for ΔGobs CAIX: pH 7
CAIII = CAIII (Homo sapiens, UniProt P07451); assay: fluorescent thermal shift assay (FTSA), CAIII; format: binding; conditions: 37 °C; for ΔGintr CAIII: converted from Kd_intr, independent of pH; for ΔGobs CAIII: converted from Kd_obs, pH 7.0, FTSA
Sequence of CAIII (P07451 whole entry): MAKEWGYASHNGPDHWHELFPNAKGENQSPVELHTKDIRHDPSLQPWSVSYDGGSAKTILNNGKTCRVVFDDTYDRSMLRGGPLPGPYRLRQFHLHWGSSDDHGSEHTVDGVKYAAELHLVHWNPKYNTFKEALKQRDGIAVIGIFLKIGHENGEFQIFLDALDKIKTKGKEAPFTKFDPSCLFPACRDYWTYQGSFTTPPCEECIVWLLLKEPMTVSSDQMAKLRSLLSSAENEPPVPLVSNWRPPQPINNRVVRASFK

Sequence of CAXIV (Q9ULX7 16-337): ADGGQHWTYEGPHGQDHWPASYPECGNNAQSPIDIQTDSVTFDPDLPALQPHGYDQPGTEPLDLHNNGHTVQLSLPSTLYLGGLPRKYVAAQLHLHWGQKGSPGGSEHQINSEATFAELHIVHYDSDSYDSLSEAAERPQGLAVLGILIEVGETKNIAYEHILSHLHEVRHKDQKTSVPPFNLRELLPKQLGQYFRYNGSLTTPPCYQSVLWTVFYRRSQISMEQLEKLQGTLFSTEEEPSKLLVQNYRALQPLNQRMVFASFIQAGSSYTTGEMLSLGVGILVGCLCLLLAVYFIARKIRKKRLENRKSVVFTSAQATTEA

| Structure (SMILES) | ΔGintr CAXIV (CAXIV) | ΔGobs CAXIV (CAXIV) | ΔGintr CAXII (CAXII) | ΔGobs CAXII (CAXII) | ΔGintr CAIV (CAIV) | ΔGobs CAIV (CAIV) | ΔGintr CAVB (CAVB) | ΔGobs CAVB (CAVB) | f RSO2NH-, fraction of deprotonated sulfonamide [2] | ΔGintr CAVII (CAVII) | ΔGobs CAVII (CAVII) | ΔGintr CAII (CAII) | ΔGobs CAII (CAII) | ΔGintr CAVI (CAVI) | ΔGobs CAVI (CAVI) | ΔGintr CAI (CAI) | ΔGobs CAI (CAI) | ΔGobs CAXIII (CAXIII) | ΔGintr CAIX (CAIX) | ΔGobs CAIX (CAIX) | also measured |
| --- | --- | --- | --- | --- | --- | --- | --- | --- | --- | --- | --- | --- | --- | --- | --- | --- | --- | --- | --- | --- | --- |
| COC(=O)c1cc(S(N)(=O)=O)c(Cl)cc1Sc1ccccc1 [Compound 5a, Methyl 4-chloro-2-(phenylsulfanyl)-5-sulfamoylbenzoate] | -14.9 kcal/mol | -10.9 kcal/mol | -15.7 kcal/mol | -11.7 kcal/mol | -15.3 kcal/mol | -11.1 kcal/mol | -13.2 kcal/mol | -9.37 kcal/mol | 0.4% | -14.4 kcal/mol | -10.3 kcal/mol | -14.5 kcal/mol | -10.6 kcal/mol | -14.4 kcal/mol | -9.51 kcal/mol | -11.2 kcal/mol | -7.77 kcal/mol | -10.9 kcal/mol | -16.4 kcal/mol | -12.2 kcal/mol | solubility [1]: LS; ΔGintr CAVA (CAVA): ≥ -8.91 kcal/mol; ΔGobs CAVA (CAVA): ≥ -5.26 kcal/mol |
| COC(=O)c1cc(S(N)(=O)=O)c(Cl)cc1SCc1ccccc1 [Compound 5c, Methyl 2-benzylsulfanyl-4-chloro-5-sulfamoylbenzoate] | -14.4 kcal/mol | -10.4 kcal/mol | -13.1 kcal/mol | -9.08 kcal/mol | – | – | -12.8 kcal/mol | -8.99 kcal/mol | 0.4% | -13.8 kcal/mol | -9.8 kcal/mol | -14.5 kcal/mol | -10.6 kcal/mol | – | -9.3 kcal/mol | -11.5 kcal/mol | -8.08 kcal/mol | -9.94 kcal/mol | -15.3 kcal/mol | -11.1 kcal/mol | solubility [1]: LS; ΔGintr CAIII (CAIII): ≥ -9.54 kcal/mol; ΔGobs CAIII (CAIII): ≥ -5.26 kcal/mol; ΔGintr CAXIII (CAXIII): -13.4 kcal/mol |
| COC(=O)c1cc(S(N)(=O)=O)c(Cl)cc1Sc1cccc2ccccc12 [Compound 5f, Methyl 4-chloro-2-(1-naphthylsulfanyl)-5-sulfamoyl-benzoate] | -9.94 kcal/mol | -5.95 kcal/mol | – | – | -10.1 kcal/mol | -5.93 kcal/mol | -12.8 kcal/mol | -8.91 kcal/mol | 0.4% | – | -8.46 kcal/mol | -13.8 kcal/mol | -9.87 kcal/mol | -11.8 kcal/mol | -6.88 kcal/mol | -9.94 kcal/mol | -6.5 kcal/mol | -10.3 kcal/mol | -15.1 kcal/mol | -10.9 kcal/mol | solubility [1]: LS; ΔGintr CAIII (CAIII): ≥ -9.54 kcal/mol; ΔGobs CAIII (CAIII): ≥ -5.26 kcal/mol; ΔGintr CAVA (CAVA): -9.37 kcal/mol; ΔGobs CAVA (CAVA): -5.71 kcal/mol; ΔGintr CAXIII (CAXIII): -13.7 kcal/mol |
| COC(=O)c1cc(S(N)(=O)=O)c(S(=O)(=O)CCc2ccccc2)cc1Cl [Compound 7d, Methyl 2-chloro-4-(2-phenylethylsulfonyl)-5-sulfamoylbenzoate] | ≥ -9.8 kcal/mol | ≥ -5.26 kcal/mol | -10.9 kcal/mol | -6.33 kcal/mol | ≥ -9.99 kcal/mol | ≥ -5.26 kcal/mol | ≥ -9.66 kcal/mol | ≥ -5.26 kcal/mol | 0.2% | ≥ -9.8 kcal/mol | ≥ -5.26 kcal/mol | ≥ -9.73 kcal/mol | ≥ -5.26 kcal/mol | -10.9 kcal/mol | -5.5 kcal/mol | -9.27 kcal/mol | – | -6.6 kcal/mol | -12.1 kcal/mol | -7.34 kcal/mol | solubility [1]: LS; ΔGintr CAIII (CAIII): ≥ -10.1 kcal/mol; ΔGobs CAIII (CAIII): ≥ -5.26 kcal/mol; ΔGintr CAVA (CAVA): ≥ -9.46 kcal/mol; ΔGobs CAVA (CAVA): ≥ -5.26 kcal/mol; ΔGintr CAXIII (CAXIII): -10.6 kcal/mol |
| COC(=O)c1cc(S(N)(=O)=O)c(Cl)cc1Cl [Compound 1, Methyl 2,4-dichloro-5-sulfamoyl-benzoate] | -13.4 kcal/mol | -10.1 kcal/mol | -12.2 kcal/mol | -8.87 kcal/mol | -13 kcal/mol | -9.56 kcal/mol | -12.4 kcal/mol | -9.23 kcal/mol | 1.2% | -13.5 kcal/mol | -10.2 kcal/mol | -13.3 kcal/mol | -10.1 kcal/mol | -13.8 kcal/mol | -9.61 kcal/mol | -9.63 kcal/mol | -6.88 kcal/mol | -10 kcal/mol | -13.7 kcal/mol | -10.3 kcal/mol | ΔGintr CAIII (CAIII): -9.68 kcal/mol; ΔGobs CAIII (CAIII): -6.09 kcal/mol; ΔGintr CAVA (CAVA): -10.3 kcal/mol; ΔGobs CAVA (CAVA): -7.34 kcal/mol; pKa [2]: 8.9 |
| COC(=O)c1cc(S(N)(=O)=O)c(S(=O)(=O)C2CCCCC2)cc1Br [Compound 8b, Methyl 2-bromo-4-cyclohexylsulfonyl-5-sulfamoylbenzoate] | ≥ -9.94 kcal/mol | ≥ -5.26 kcal/mol | ≥ -9.94 kcal/mol | ≥ -5.26 kcal/mol | -11 kcal/mol | -6.17 kcal/mol | ≥ -9.8 kcal/mol | ≥ -5.26 kcal/mol | 0.1% | ≥ -9.94 kcal/mol | ≥ -5.26 kcal/mol | ≥ -9.87 kcal/mol | ≥ -5.26 kcal/mol | ≥ -10.9 kcal/mol | ≥ -5.26 kcal/mol | ≥ -9.42 kcal/mol | ≥ -5.26 kcal/mol | -5.88 kcal/mol | -51.2 | -7.34 kcal/mol | ΔGintr CAIII (CAIII): ≥ -10.3 kcal/mol; ΔGobs CAIII (CAIII): ≥ -5.26 kcal/mol; ΔGintr CAVA (CAVA): ≥ -9.61 kcal/mol; ΔGobs CAVA (CAVA): ≥ -5.26 kcal/mol; pKa [2]: 9.9; ΔGintr CAXIII (CAXIII): -10.1 kcal/mol |
| COC(=O)c1cc(S(N)(=O)=O)c(Cl)cc1S(=O)(=O)c1cccc2ccccc12 [Compound 9f, Methyl 4-chloro-2-(1-naphthylsulfonyl)-5-sulfamoylbenzoate] | -14.5 kcal/mol | -11.9 kcal/mol | -13 kcal/mol | -10.4 kcal/mol | -13.1 kcal/mol | -10.3 kcal/mol | -14.5 kcal/mol | -12 kcal/mol | 3.8% | -15.6 kcal/mol | -13 kcal/mol | -15.2 kcal/mol | -12.6 kcal/mol | -13.4 kcal/mol | -9.94 kcal/mol | -11.8 kcal/mol | -9.7 kcal/mol | -12.6 kcal/mol | – | -11.4 kcal/mol | pKa [2]: 8.4; ΔGintr CAXIII (CAXIII): -14.7 kcal/mol |
| COC(=O)c1cc(S(N)(=O)=O)c(Cl)cc1S(=O)(=O)Cc1ccccc1 [Compound 9c, Methyl 2-benzylsulfonyl-4-chloro-5-sulfamoylbenzoate] | -14.5 kcal/mol | -12.2 kcal/mol | -13.2 kcal/mol | -10.9 kcal/mol | -12.5 kcal/mol | -9.94 kcal/mol | -14.9 kcal/mol | -12.7 kcal/mol | 5.9% | – | -12.2 kcal/mol | -14 kcal/mol | -11.8 kcal/mol | -14.3 kcal/mol | -11.1 kcal/mol | -10.7 kcal/mol | -8.87 kcal/mol | -11.8 kcal/mol | – | -12.2 kcal/mol | ΔGintr CAIII (CAIII): -11.6 kcal/mol; ΔGobs CAIII (CAIII): -9.01 kcal/mol; pKa [2]: 8.2; ΔGintr CAXIII (CAXIII): -13.6 kcal/mol |
